Results from ChEMBL document CHEMBL1122751, “Structure-activity relationships of phenytoin-like anticonvulsant drugs” (1984).

test system: Mus musculus; experiment: Antiepileptic potency in the maximal electroshock seizure test. Compound was administered orally to male NMRI mice; type: functional; settings: po

First: CN1C(=O)CC(c2ccccc2)(c2ccccc2)C1=O
Second: O=C1CC(c2ccccc2)(c2ccccc2)C(=O)N1
The ED50 of the first is higher: 357 µmol/kg for the first, 107 µmol/kg for the second.

Going from `CN1C(=O)NC(c2ccccc2)(c2ccccc2)C1=O` to `O=C1NC(=O)C(c2ccccc2)(c2ccccc2)N1` [PHENYTOIN], the ED50 falls from 149 µmol/kg to 28 µmol/kg.

Going from `CC1CC(c2ccccc2)(c2ccccc2)C(=O)N1C` (stereo unspecified) to `O=C1NCNC1(c1ccccc1)c1ccccc1` [DOXENITOIN], the ED50 falls from 3830 µmol/kg to 129 µmol/kg.
